Data taken from ChEMBL document CHEMBL1201862, “PubChem BioAssay data set” (2004).
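A five-concentration, 48-hour dose response in 96-well plates underlies each endpoint, interpolated linearly between surrounding concentrations. GI50 marks 50% less growth.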 The source made the active and inactive calls. Cut-off read from the data, not from the text of the source: active = GI50 up to about 1.1 µM and inactive = higher.

Assays:
Assay in all cases: inhibition of tumour cell growth, NCI panel, 48 h
IGROV-1 = system: IGROV-1
HL-60 = system: HL-60
UO-31 = system: UO-31
SNB-75 = system: SNB-75
RPMI-8226 = system: RPMI-8226
HCT-116 = system: HCT-116
RXF 393 = system: RXF 393
HCC 2998 = system: HCC 2998
OVCAR-3 = system: OVCAR-3
SF-539 = system: SF-539
A498 = system: A498
NCI-H23 = system: NCI-H23
UACC-62 = system: UACC-62
NCI-H460 = system: NCI-H460
NCI-H226 = system: NCI-H226
TK-10 = system: TK-10
Hs-578T = system: Hs-578T
Malme-3M = system: Malme-3M
HOP-92 = system: HOP-92
MDA-MB-435 = system: MDA-MB-435

Compound | GI50 (IGROV-1) | GI50 (HL-60) | GI50 (UO-31) | GI50 (SNB-75) | GI50 (RPMI-8226) | GI50 (HCT-116) | GI50 (RXF 393) | GI50 (HCC 2998) | GI50 (OVCAR-3) | GI50 (SF-539) | GI50 (A498) | GI50 (NCI-H23) | GI50 (UACC-62) | GI50 (NCI-H460) | GI50 (NCI-H226) | GI50 (TK-10) | GI50 (Hs-578T) | GI50 (Malme-3M) | GI50 (HOP-92) | GI50 (MDA-MB-435)
Cc1ccc(/C=C2\Cc3cc(C)c(C)cc3C2=O)c(C(=O)O)c1 | 37.8 µM (inactive) | 54.3 µM (inactive) | 29 µM (inactive) | 30.3 µM (inactive) | 40.4 µM (inactive) | 32.1 µM (inactive) | 28.2 µM (inactive) | 26.1 µM (inactive) | 37.9 µM (inactive) | 13.7 µM (inactive) | 22.8 µM (inactive) | > 10 µM (inactive) | 61.7 µM (inactive) | 33.7 µM (inactive) | 19.3 µM (inactive) | > 100 µM (inactive) | 37.9 µM (inactive) | 42.1 µM (inactive) |  | 
O=C1CSC(c2cccc(Oc3ccccc3)c2)N1c1ccc(Cl)cc1 (configuration not stated) |  | 24.9 µM (inactive) | 34.5 µM (inactive) | 28 µM (inactive) |  | 13.6 µM (inactive) | 20.4 µM (inactive) |  | 39.4 µM (inactive) | 32.1 µM (inactive) | 17.5 µM (inactive) | 25.5 µM (inactive) | 10.8 µM (inactive) | 17.1 µM (inactive) | 32.8 µM (inactive) | 22.4 µM (inactive) | 32.9 µM (inactive) | 20.4 µM (inactive) | 13.4 µM (inactive) | 23.2 µM (inactive)
CCN(CC)c1nc(N(C)C)c2ccc(OC)cc2n1 | 23.2 µM (inactive) | 3.64 µM (inactive) |  | 15.6 µM (inactive) | 10.1 µM (inactive) | 4.35 µM (inactive) | 13.6 µM (inactive) | 11.6 µM (inactive) |  | 16.7 µM (inactive) |  | 15.1 µM (inactive) | 6.65 µM (inactive) | 10.3 µM (inactive) | 14.2 µM (inactive) | 24.5 µM (inactive) | 39.9 µM (inactive) | 18.3 µM (inactive) | 18.5 µM (inactive) | 10.5 µM (inactive)
CCCCC(=C=C(C)CO)C1CCCN1C(=O)OC(C)(C)C (configuration not stated) | 17.9 µM (inactive) | 13.4 µM (inactive) | 22.9 µM (inactive) | 22.5 µM (inactive) | 13.9 µM (inactive) | 15.6 µM (inactive) | 15.2 µM (inactive) | 8.02 µM (inactive) | 17.5 µM (inactive) | 16.9 µM (inactive) |  | 19 µM (inactive) | 13.6 µM (inactive) | 16.1 µM (inactive) | 16 µM (inactive) | 19.4 µM (inactive) | 13.8 µM (inactive) | 15 µM (inactive) | 12.7 µM (inactive) | 18.8 µM (inactive)
COCC1OC(S(=O)(=O)c2ccccc2)C(O)C(OC)C1OC (configuration not stated) | > 100 µM (inactive) | > 100 µM (inactive) | > 100 µM (inactive) |  |  | > 100 µM (inactive) | > 100 µM (inactive) | > 100 µM (inactive) | > 100 µM (inactive) | > 100 µM (inactive) |  | > 100 µM (inactive) | > 100 µM (inactive) | > 100 µM (inactive) | > 100 µM (inactive) | > 100 µM (inactive) | > 100 µM (inactive) | > 100 µM (inactive) |  | > 100 µM (inactive)
O=C1NC(N2CCOCC2)=N/C1=C\c1ccccc1 | > 100 µM (inactive) | > 100 µM (inactive) | > 100 µM (inactive) | > 100 µM (inactive) | > 100 µM (inactive) | > 100 µM (inactive) |  | > 100 µM (inactive) | > 100 µM (inactive) | > 100 µM (inactive) |  | > 100 µM (inactive) | > 100 µM (inactive) |  | > 100 µM (inactive) | > 100 µM (inactive) | > 100 µM (inactive) | > 100 µM (inactive) | > 100 µM (inactive) | > 100 µM (inactive)
CCOC(=O)/C=C1\c2ccccc2C(=O)N1CC(=O)OCC | > 100 µM (inactive) |  | > 100 µM (inactive) | 77.1 µM (inactive) | > 100 µM (inactive) | > 100 µM (inactive) | > 100 µM (inactive) |  | > 100 µM (inactive) |  | > 100 µM (inactive) | > 100 µM (inactive) | > 100 µM (inactive) |  | > 100 µM (inactive) | > 100 µM (inactive) | > 100 µM (inactive) | > 100 µM (inactive) | 39.9 µM (inactive) | > 100 µM (inactive)
N=C(c1ccc(-c2cn3cc(C(=N)N4CCCC4)ccc3n2)cc1)N1CCCC1 | > 100 µM (inactive) | 0.0303 µM (active) | > 100 µM (inactive) | > 100 µM (inactive) | > 100 µM (inactive) | > 100 µM (inactive) | > 100 µM (inactive) |  | > 100 µM (inactive) |  |  | > 100 µM (inactive) | > 100 µM (inactive) |  | > 100 µM (inactive) | > 100 µM (inactive) | > 100 µM (inactive) | > 100 µM (inactive) | 3.86 µM (inactive) | > 100 µM (inactive)
CC(ON(C(c1ccccc1)C(C)C)C(C)(C)C)c1ccccc1 (configuration not stated) | 23.1 µM (inactive) | 18.7 µM (inactive) | 24.5 µM (inactive) | 25.1 µM (inactive) | 29.5 µM (inactive) | 14.7 µM (inactive) | 16.3 µM (inactive) | 17.3 µM (inactive) | 16.4 µM (inactive) | 21.6 µM (inactive) |  | 18.7 µM (inactive) | 15.9 µM (inactive) | 18.1 µM (inactive) | 19 µM (inactive) | 22.4 µM (inactive) | 29 µM (inactive) | 38.3 µM (inactive) | 20.6 µM (inactive) | 25.5 µM (inactive)
COC(=O)/C=C(\C(=O)OC)C1C(=O)Oc2c(C)c(=O)c3ccccc3n21 (configuration not stated) | > 100 µM (inactive) | > 100 µM (inactive) |  | > 100 µM (inactive) | > 100 µM (inactive) | > 100 µM (inactive) | > 100 µM (inactive) |  | > 100 µM (inactive) | > 100 µM (inactive) |  | > 100 µM (inactive) | > 100 µM (inactive) | > 100 µM (inactive) | > 100 µM (inactive) | > 100 µM (inactive) | > 100 µM (inactive) | > 100 µM (inactive) |  | > 100 µM (inactive)
Cc1c(-c2ccccc2)[nH]c2ccc(Cl)cc2c1=O | 33.9 µM (inactive) | 24.2 µM (inactive) | 0.252 µM (active) | 26 µM (inactive) | 15.2 µM (inactive) | 17.6 µM (inactive) | 20 µM (inactive) | 23.2 µM (inactive) | 17.1 µM (inactive) | 22.2 µM (inactive) |  | 23.4 µM (inactive) | 34.8 µM (inactive) | 0.314 µM (active) | 30.4 µM (inactive) | 36.6 µM (inactive) | 30.5 µM (inactive) | 18.3 µM (inactive) | 20.4 µM (inactive) | 16.4 µM (inactive)
O=C1OC2(c3ccccc31)c1cc(I)c(O)c(I)c1Oc1c2cc(I)c(O)c1I [ERYTHROSINE] | > 100 µM (inactive) |  | > 100 µM (inactive) | > 100 µM (inactive) | > 100 µM (inactive) | 72.4 µM (inactive) | 5.79 µM (inactive) |  | 5.46 µM (inactive) | > 100 µM (inactive) |  | 70 µM (inactive) | 75.9 µM (inactive) | > 100 µM (inactive) | 37.4 µM (inactive) | > 100 µM (inactive) | 49.1 µM (inactive) | 64.1 µM (inactive) | > 100 µM (inactive) | > 100 µM (inactive)
